Columns and labels:
[1] = molecular target: Substance-K receptor (Homo sapiens) (UniProt P21452); test: Selectivity interaction (Eurofins CEREP Diversity Profile (receptors and ion channels)) EUB0000279b TACR2; conditions: at 10 µM
[2] = molecular target: Receptor tyrosine-protein kinase erbB-3 (Homo sapiens) (UniProt P21860); test: Selectivity interaction (Ambit KINOMEscan and KiNATiv profiling in Jurkat cells) EUB0000090b ERBB3; assay type: cell-based; conditions: at 1 µM
[3] = molecular target: Interferon-induced, double-stranded RNA-activated protein kinase (Homo sapiens) (UniProt P19525); test: Selectivity interaction (KinomeScan (DiscoverX)) EUB0000655a EIF2AK2; conditions: at 10 µM
[4] = molecular target: Serine/threonine-protein kinase SIK1 (Homo sapiens) (UniProt P57059); test: Selectivity interaction (KinomeScan (DiscoverX)) EUB0000655a SIK1; conditions: at 10 µM
[5] = molecular target: T1, Hormonally up-regulated neu tumor-associated kinase (Homo sapiens) (UniProt P57058); test: Selectivity interaction (KinomeScan (DiscoverX)) EUB0000045b HUNK
T1 sequence (whole entry): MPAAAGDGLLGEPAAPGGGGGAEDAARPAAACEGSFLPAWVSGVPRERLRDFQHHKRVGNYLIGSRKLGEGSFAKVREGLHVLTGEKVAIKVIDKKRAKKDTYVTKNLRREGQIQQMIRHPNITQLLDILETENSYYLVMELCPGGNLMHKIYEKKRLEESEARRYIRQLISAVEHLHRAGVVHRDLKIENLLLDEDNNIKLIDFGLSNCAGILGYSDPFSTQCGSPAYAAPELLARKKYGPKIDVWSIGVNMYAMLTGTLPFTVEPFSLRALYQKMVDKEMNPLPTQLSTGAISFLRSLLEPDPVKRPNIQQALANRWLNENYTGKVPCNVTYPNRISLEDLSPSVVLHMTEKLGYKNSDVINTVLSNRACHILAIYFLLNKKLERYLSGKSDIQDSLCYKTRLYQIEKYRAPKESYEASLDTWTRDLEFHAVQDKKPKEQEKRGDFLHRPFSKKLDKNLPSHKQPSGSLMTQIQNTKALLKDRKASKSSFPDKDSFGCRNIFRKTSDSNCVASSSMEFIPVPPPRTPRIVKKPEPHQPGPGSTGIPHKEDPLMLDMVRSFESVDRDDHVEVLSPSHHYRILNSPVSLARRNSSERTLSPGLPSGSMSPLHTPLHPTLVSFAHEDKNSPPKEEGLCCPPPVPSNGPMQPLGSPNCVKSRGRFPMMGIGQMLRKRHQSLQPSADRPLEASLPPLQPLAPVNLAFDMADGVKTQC

[6] = molecular target: Protein-tyrosine kinase 6 (Homo sapiens, UniProt Q13882); test: Selectivity interaction (KinomeScan (DiscoverX)) EUB0000045b PTK6
[7] = molecular target: Platelet-derived growth factor receptor alpha (Homo sapiens, UniProt P16234); test: Selectivity interaction (KinomeScan (DiscoverX)) EUB0000595a PDGFRA; conditions: at 10 µM
[8] = molecular target: T2, Casein kinase I isoform alpha-like (Homo sapiens) (UniProt Q8N752); conditions: at 10 µM
T2 sequence (whole entry): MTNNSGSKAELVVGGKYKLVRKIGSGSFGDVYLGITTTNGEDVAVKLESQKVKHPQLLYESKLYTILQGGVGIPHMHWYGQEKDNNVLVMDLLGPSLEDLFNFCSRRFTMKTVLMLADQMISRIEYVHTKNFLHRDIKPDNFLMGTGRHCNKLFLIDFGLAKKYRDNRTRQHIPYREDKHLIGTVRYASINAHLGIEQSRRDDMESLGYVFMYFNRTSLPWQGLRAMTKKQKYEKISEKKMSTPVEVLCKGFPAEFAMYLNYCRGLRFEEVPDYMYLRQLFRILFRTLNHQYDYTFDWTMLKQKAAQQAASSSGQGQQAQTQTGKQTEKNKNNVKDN

[9] = molecular target: T3, Cyclin-dependent kinase 11A (Homo sapiens) (UniProt Q9UQ88); test: Selectivity interaction (ActivX KiNativ screen (kinase selectivity in THP-1 cell lysates)) EUB0000639a CDK11A; assay type: subcellular; conditions: lysate, at 0.01 µM
T3 sequence (whole entry): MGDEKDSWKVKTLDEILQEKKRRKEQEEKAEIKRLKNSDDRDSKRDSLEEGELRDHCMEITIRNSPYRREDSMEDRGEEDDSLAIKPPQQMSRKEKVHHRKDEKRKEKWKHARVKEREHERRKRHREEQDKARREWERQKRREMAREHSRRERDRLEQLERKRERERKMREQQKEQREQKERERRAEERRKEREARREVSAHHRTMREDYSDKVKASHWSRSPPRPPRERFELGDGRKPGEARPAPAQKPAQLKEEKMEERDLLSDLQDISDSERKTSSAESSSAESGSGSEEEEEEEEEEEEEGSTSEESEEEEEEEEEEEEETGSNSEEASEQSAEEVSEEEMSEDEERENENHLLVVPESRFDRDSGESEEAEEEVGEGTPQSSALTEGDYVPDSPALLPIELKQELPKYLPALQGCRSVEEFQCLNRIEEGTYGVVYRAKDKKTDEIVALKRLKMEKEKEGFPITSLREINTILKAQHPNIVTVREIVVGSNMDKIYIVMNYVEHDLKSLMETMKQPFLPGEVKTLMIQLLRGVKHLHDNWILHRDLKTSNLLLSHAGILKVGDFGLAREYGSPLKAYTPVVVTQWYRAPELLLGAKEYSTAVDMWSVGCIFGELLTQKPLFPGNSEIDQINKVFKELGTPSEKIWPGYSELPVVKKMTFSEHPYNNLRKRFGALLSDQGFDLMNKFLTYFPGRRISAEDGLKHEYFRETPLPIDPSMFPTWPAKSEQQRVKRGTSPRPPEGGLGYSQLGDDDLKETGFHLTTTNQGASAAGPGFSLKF

[10] = molecular target: Serine/threonine-protein kinase 10 (Homo sapiens) (UniProt O94804); test: Selectivity interaction (ActivX KiNativ screen (kinase selectivity in THP-1 cell lysates)) EUB0000639a STK10; assay type: subcellular; conditions: lysate, at 0.04 µM
[11] = molecular target: ATPase family AAA domain-containing protein 2 (Homo sapiens) (UniProt Q6PL18); test: Selectivity interaction (Bromodomain panel (DSF asssay)) EUB0000270b ATAD2
[12] = molecular target: Receptor tyrosine-protein kinase erbB-3 (Homo sapiens) (UniProt P21860); test: Selectivity interaction (KinomeScan (DiscoverX)) EUB0001049a ERBB3; conditions: at 1 µM
[13] = molecular target: Mitogen-activated protein kinase 1 (Homo sapiens, UniProt P28482); test: Selectivity interaction (KinomeScan (DiscoverX)) EUB0000666a MAPK1; conditions: at 10 µM
[14] = molecular target: Macrophage-stimulating protein receptor (Homo sapiens, UniProt Q04912); test: Selectivity interaction (KinomeScan (DiscoverX)) EUB0000092b MST1R; conditions: at 10 µM
Focal adhesion kinase 1 = Focal adhesion kinase 1 (Homo sapiens, UniProt Q05397); test: Selectivity interaction (KinomeScan (DiscoverX)) EUB0000695a PTK2; conditions: at 100 nM

Sequence of Receptor tyrosine-protein kinase erbB-3 (Homo sapiens) (P21860 whole entry): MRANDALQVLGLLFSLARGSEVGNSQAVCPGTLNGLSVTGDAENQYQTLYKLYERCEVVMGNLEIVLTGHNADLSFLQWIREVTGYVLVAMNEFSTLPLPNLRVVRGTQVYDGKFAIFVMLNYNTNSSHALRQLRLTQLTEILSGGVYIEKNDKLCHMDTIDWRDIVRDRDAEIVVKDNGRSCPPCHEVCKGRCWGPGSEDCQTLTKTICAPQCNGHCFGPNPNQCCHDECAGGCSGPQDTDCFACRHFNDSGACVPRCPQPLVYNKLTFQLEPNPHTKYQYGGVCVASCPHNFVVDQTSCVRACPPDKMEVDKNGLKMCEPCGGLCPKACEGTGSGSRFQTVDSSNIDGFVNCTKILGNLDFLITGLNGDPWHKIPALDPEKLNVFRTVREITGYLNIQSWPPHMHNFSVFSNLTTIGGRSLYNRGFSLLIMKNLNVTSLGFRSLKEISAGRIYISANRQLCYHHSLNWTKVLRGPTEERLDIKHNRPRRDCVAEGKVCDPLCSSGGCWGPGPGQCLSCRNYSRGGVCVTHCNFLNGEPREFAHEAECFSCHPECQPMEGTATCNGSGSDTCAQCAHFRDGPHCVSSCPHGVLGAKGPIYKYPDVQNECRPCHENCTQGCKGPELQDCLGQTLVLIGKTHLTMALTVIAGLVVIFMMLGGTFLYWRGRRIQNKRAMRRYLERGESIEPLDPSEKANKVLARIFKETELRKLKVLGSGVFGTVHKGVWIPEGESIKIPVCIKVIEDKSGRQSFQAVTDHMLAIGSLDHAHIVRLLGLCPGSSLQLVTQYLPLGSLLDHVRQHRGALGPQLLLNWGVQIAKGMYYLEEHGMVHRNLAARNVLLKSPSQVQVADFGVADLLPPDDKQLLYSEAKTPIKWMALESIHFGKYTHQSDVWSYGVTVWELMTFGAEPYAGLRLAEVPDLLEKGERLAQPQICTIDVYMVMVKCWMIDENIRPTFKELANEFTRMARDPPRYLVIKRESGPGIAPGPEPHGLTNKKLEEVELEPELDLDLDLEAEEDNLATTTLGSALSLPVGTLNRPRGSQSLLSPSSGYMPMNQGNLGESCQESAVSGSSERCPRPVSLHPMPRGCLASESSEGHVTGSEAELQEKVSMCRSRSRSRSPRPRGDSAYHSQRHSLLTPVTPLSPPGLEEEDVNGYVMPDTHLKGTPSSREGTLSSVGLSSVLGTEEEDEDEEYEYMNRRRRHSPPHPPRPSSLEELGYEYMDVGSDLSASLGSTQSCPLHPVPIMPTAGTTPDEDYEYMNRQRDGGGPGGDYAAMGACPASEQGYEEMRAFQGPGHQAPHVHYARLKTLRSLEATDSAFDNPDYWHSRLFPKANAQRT
Sequence of Protein-tyrosine kinase 6 (Q13882 whole entry, looked up): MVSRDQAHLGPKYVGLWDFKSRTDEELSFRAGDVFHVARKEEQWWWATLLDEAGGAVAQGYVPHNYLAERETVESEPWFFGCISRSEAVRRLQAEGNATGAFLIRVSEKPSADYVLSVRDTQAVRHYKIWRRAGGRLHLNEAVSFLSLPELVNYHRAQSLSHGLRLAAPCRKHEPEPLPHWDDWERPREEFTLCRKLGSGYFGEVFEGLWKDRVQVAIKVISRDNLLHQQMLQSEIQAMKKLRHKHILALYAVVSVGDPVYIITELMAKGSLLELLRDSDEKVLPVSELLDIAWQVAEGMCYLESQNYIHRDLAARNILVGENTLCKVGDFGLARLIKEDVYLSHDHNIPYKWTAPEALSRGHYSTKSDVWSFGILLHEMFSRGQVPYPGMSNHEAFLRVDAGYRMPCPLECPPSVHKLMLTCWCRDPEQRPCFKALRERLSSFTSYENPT
Sequence of Mitogen-activated protein kinase 1 (P28482 whole entry): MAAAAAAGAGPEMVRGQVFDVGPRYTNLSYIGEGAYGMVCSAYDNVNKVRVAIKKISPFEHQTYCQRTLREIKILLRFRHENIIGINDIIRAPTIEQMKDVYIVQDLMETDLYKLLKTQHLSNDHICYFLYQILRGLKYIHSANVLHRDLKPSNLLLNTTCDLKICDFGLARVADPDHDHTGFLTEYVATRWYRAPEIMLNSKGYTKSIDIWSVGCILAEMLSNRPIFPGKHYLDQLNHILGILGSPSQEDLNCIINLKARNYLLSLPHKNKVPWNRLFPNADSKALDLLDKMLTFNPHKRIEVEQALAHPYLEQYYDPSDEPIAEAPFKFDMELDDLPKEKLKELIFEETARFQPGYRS
Sequence of Serine/threonine-protein kinase 10 (Homo sapiens) (O94804 whole entry, looked up, the tested form may be a part): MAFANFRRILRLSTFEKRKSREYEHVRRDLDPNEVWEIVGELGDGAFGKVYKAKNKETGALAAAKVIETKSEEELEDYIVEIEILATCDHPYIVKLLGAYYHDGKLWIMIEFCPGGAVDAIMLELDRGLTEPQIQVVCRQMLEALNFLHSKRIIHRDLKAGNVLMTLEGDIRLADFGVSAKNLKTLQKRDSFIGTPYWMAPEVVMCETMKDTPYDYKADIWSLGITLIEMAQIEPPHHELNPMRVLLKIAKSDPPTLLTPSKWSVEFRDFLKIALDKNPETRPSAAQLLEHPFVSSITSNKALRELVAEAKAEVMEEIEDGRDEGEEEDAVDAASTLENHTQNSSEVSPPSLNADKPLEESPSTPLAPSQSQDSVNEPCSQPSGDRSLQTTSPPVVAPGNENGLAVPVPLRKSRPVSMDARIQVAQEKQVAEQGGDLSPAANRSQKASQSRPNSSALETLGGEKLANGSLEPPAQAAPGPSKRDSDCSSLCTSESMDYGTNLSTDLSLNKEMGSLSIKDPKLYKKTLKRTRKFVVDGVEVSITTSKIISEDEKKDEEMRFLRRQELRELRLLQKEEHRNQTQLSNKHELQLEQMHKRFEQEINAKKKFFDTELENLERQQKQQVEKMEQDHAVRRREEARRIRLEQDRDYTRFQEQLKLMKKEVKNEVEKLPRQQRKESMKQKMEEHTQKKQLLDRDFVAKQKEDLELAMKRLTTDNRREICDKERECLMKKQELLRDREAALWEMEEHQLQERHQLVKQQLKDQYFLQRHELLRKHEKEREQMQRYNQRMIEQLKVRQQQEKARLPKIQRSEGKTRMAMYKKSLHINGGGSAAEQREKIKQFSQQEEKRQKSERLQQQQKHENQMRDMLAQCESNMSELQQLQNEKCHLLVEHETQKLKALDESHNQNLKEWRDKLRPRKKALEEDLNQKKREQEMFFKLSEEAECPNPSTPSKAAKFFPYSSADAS
Sequence of Macrophage-stimulating protein receptor (Q04912 25-304 limits assumed): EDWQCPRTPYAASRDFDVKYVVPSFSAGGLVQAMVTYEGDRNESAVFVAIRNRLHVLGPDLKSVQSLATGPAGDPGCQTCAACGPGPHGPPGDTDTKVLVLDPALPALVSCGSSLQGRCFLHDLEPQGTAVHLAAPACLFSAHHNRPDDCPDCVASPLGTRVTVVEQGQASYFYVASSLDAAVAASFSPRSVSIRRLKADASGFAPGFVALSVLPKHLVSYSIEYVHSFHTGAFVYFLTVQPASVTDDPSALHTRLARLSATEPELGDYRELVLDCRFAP
Sequence of Macrophage-stimulating protein receptor (Q04912 310-1400 limits assumed): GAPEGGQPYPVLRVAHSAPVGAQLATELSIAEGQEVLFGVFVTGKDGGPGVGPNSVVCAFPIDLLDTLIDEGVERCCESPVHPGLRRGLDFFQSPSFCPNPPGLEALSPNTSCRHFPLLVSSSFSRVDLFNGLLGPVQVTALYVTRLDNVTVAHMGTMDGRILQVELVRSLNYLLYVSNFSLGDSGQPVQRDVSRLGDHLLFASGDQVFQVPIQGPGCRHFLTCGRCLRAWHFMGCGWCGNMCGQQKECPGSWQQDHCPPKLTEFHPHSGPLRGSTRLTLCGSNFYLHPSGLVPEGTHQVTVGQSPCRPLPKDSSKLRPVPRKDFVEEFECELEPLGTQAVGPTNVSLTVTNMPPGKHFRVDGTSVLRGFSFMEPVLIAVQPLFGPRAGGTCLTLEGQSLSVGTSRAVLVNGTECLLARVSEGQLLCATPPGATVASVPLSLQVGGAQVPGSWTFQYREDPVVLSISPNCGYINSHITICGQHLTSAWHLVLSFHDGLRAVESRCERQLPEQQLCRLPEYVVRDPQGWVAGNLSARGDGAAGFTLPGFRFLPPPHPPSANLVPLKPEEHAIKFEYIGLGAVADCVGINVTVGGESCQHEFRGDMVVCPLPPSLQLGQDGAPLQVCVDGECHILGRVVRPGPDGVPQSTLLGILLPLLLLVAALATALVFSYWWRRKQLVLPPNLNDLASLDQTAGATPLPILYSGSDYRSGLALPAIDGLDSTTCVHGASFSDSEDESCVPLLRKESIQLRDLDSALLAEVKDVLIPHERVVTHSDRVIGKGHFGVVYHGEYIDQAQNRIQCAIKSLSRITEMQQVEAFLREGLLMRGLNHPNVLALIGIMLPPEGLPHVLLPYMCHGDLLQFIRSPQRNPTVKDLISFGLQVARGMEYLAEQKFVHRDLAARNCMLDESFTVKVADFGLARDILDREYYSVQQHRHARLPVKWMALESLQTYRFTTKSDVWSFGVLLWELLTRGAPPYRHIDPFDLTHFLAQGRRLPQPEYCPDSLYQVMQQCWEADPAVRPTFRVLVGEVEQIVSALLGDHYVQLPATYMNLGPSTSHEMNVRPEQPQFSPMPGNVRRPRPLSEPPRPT
Sequence of Interferon-induced, double-stranded RNA-activated protein kinase (Homo sapiens) (P19525 whole entry): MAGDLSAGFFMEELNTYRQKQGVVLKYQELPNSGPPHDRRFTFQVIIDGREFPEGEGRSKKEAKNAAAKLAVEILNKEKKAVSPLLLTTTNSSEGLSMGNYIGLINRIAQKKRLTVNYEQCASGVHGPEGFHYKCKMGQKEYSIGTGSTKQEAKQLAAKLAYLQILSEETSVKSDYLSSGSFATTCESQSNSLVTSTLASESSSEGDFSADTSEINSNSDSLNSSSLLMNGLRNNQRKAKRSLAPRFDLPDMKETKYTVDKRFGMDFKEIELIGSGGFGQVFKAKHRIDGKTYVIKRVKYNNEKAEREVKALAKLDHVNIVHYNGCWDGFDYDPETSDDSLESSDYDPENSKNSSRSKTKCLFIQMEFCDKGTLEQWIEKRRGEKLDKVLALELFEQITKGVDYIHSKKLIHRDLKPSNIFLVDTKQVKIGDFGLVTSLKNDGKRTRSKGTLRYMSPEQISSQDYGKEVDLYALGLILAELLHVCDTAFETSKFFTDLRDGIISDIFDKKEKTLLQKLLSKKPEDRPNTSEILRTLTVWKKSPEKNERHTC

## CC(=O)c1cc(-c2ccccc2OCC2CC2)c2ncccn12
[1]
  % of control: 92%

## CN(C)C/C=C/C(=O)Nc1ccc(C(=O)N2CCCC(Nc3ncc(Cl)c(-c4c[nH]c5ccccc45)n3)C2)cc1 (configuration not stated)
[2]
  % of control: 98%

## CN(C)CCOc1ccc(-c2nc(-c3ccncc3)c(-c3ccc4c(c3)CC/C4=N\O)[nH]2)cc1
[3]
  % of control: 61%
[4]
  % of control: 100%

## C=CC(=O)Nc1cc(-n2c(=O)ccc3cnc4ccc(-c5ccc(NS(C)(=O)=O)cc5)cc4c32)ccc1C
[5]; at 1 µM
  % of control: 85%
[5]; at 10 µM
  % of control: 100%
[6]; at 1 µM
  % of control: 100%
[6]; at 10 µM
  % of control: 77%

## COCC(=O)NC/C=C/c1ccc2ncnc(Nc3ccc(Oc4ccc(C)nc4)c(C)c3)c2c1 [CP-724714]
[7]
  % of control: 56%

## Cc1cc([C@@H](C)Nc2ccccc2C(=O)O)c2nc(N3CCOCC3)cc(=O)n2c1 [AZD-6482]
[8]
  % of control: 100%

## CC[C@@H]1[C@H](F)C(=O)N[C@@H]1COc1nccc2cc(C(N)=O)c(OC)cc12 [ZIMLOVISERTIB]
[9]
  % of inhibition: 11.4%
[10]
  % of inhibition: -10.5%

## Cc1cc(CN)cc(C)c1-c1ncn(C)c1-c1cncn1C
[11]
  dTM: -1.82 K

## COc1cc(Nc2nc(C)cc(-c3cnn4nc(OC)ccc34)n2)cc(C(F)(F)F)c1
[12]
  % of control: 100%

## O=C(NOC[C@H](O)CO)c1ccc(F)c(F)c1Nc1ccc(I)cc1F
[13]
  % of control: 100%

## CCC(=O)N1CCN(c2ccc(-n3c(=O)ccc4cnc5ccc(-c6cnc7ccccc7c6)cc5c43)cc2C(F)(F)F)CC1
[14]
  % of control: 55%

## Cc1cc(F)c(C(=O)Nc2cccc(-c3nncn3C(C)C)n2)cc1-n1cnc(C2CC2)c1
Focal adhesion kinase 1
  % of control: 100%

— ChEMBL document CHEMBL5465560, “Selectivity Literature for EUbOPEN Chemogenomic Library” (2024)
